Source: patent US8883763B2 (Universite Joseph Fourier, priority 2010, dated 2014)

Legend:
PP1α (PP1CA) = target: T1, PP1α (PP1CA) (Oryctolagus cuniculus, UniProt P62139); assay: Protein phosphatase test (PP1 activity, DiFMUP fluorescent substrate); type: biochemical; settings: PP1CA at 80 mU, fluorescent substrate (50 μM), molecules from 50 μM to 50 nM; read-out: PP1 Inhibition IC50
T1 construct: purchased New England Biolabs P0754
Procedure: FIG. 13 presents the graph showing the inhibition of the PP1Cα activity by compound 6 in vitro. PP1Cα (New England Biolabs, 30 mU/well) was incubated in the presence of compound 6 at different concentrations and a fluorescent substrate, diFMUP.
Determination of the 1050 was carried out with PP1CA at 80 mU in the presence of a fluorescent substrate
(50 μM) and different concentrations of molecules from 50 μM to 50 nM.
For the activity tests, PP1α (New England Biolabs # P0754) was used at a final concentration of 30 mU or 80 mU for the screening of all the analogues. 6,8-difluoro-4-methylumbelliferyl phosphate (DiFMUP, Invitrogen # D6567) was used as fluorescent substrate at a concentration of […]. All the tests were carried out in a final volume of 100 μl, at 37° C. in 96-microwell plates (Greiner #655096).
Compound 6, combretastatin A4 (CA-4) as well as all the analogues were diluted in 50 μl of PP1 buffer (100 mM Tris-HCl, pH 7.5, 4 mM DTT, 0.2 mM EDTA, 0.5 mM MnCl2) from 50 μM to 50 nM. Corresponding quantities of DMSO were added to control wells. PP1α (30 or 80 mU in 30 μl of PP1 buffer) was added to each well. After incubating for 15 minutes at AT, the substrate was added (in 20 μl of PP1 buffer). After incubating for 20 minutes at 37° C., the fluorescence was measured in a plate fluorometer at 355-460 nm in order to assay the phosphatase activity. The test was carried out three times in duplicate for each condition.

bovine brain tubulin = assay: In vitro tubulin polymerization test (turbidimetry at 350 nm); type: biochemical; settings: molecules at 50 μM, calculated at t=3000 s, DMSO control = 100%
Procedure: Tubulin was purified from bovine brain using the polymerization-depolymerization process described by (Castoldi M and Popov A V. Protein Expr Purif. 2003, 32(1): pp 83-8).
The in vitro tubulin polymerization tests (at 50 μM) were carried out in the presence of GTP 1 mM in BRB80 buffer (80 mM K-PIPES pH 6.8, 1 mM MgCl2, 1 mM EGTA) at 37° C. The tests were carried out in 96-microwell plates (half-wells) (Costar plates, Corning #3695), in triplicate with a final volume of 70 μl. Tubulin assembly was carried out in the presence of compound 6 or its analogues (all used at a concentration of 50 μM) and was monitored by turbidimetry measurement at 350 nm using a spectrophotometer (Spectramax More, Molecular Devices).
Measurement of the effect of a molecule on polymerization was calculated at t=3000 s taking the value of the control at the same time as being equal to 100%.

HeLa cells = assay: Indirect immunofluorescence: effect on HeLa cells (mitotic arrest, microtubule depolymerization); type: cell-based, human; set-up: key to Effect on Hela at 25 μM / Effect on Hela at 100 μM / Effect on Hela at 50 and 100 μM / Effect on Hela at 50 μM: —: −: no activity on the cells at 25 μM (if there is an effect at high concentrations, this is specified in the table).; *: weak activity (MA and/or slight depolymerization of the MTs and/or slight inhibition of proliferation),; **: average activity (MA and/or moderate depolymerization of the MTs and/or moderate inhibition of proliferation),; ***: strong activity (MA and/or pronounced depolymerization of the MTs and/or pronounced inhibition of proliferation),; ****: very strong activity (MA and/or very pronounced depolymerization of the MTs and/or strong inhibition of proliferation); settings: 25 μM, 24 hours; mitotic index and/or depolymerization of the MTs
Procedure: The cells were cultured on slides in 24-well plates and incubated for 24 hours with molecule 6 at different concentrations from 1 to 10 μM.
Corresponding quantities of DMSO were added to the culture medium in the control wells.
The cells were fixed in a solution of PBS with 4% paraformaldehyde (PFA) and 0.1% glutaraldehyde (GA), for 15 minutes and centrifuged at 300 g for the last 10 minutes of the fixing. The slides were rinsed in PBS and the free aldehyde groups were reduced by two successive 5-minute incubations in PBS containing 1 mg/ml of NaBH4.
After one washing with PBS then another with PBST (PBS with 0.5% triton-X-100), the cells are incubated for 30 minutes at ambient temperature with anti α-tubulin monoclonal antibody solution (DM1A clone, Sigma # T6199) diluted to 1:200 in PBST. After 3 10-minute washings with PBST, the cells are incubated for 30 minutes at ambient temperature in a solution of goat anti-mouse polyclonal antibodies coupled with Alexa 488 (1:1000, Molecular Probes # A-11029) and phalloidin coupled with Texas red to label the actin (1:2000, Molecular Probes # T7471), in PBST also containing Hoechst 33258 (1 μg/ml) for labelling the DNA. After 3 10-minute washings in PBST, the slides are mounted on plates in Fluorsave™ mounting medium (Calbiochem #345789) and are observed and analyzed using an Axiovert 200M inverted fluorescence microscope (Zeiss®). The images are produced with a Plan-Apochromat 63× oil objective (Zeiss®) by means of a Coolsnap HQ camera (Roper Scientifics®) and with Metamorph acquisition software (Universal Imaging™ Corporation).
In order to evaluate the effect of the analogues of compound 6 on PHFs and HeLa cells, the immunofluorescence technique described above was used and adapted to a 96-well dish format. The cells were seeded in glass-bottomed 96-well dishes and incubated for 24 hours in the presence of different concentrations of molecules from 100 μM to 50 nM. And in the same way as described above, the cells were fixed and immunolabelled. Analysis of the phenotypes as well as counting the mitotic cells were carried out with the same microscope but using a ×40 objective (Olympus). The molecules were compared with each other with respect to the mitotic arrest induced on PHFs and HeLa cells at 25 and 0.3 μM.
The mitotic index and/or the depolymerization of the MTs were evaluated at 25 μM.

HMEC cells = assay: Proliferation of HMEC cells (GI50); type: cell-based; settings: Homo sapiens, 120 h, 50 μM to 1 nM for 5 days
Procedure: The HMECs were seeded at 10% confluence and incubated with the molecules at different concentrations (from 50 μM to 1 nM) for 5 days. The GI50 (50% Growth Inhibition) defines the concentration inducing a 50% reduction in proliferation with respect to the control.

T1 sequence (P62139 whole entry): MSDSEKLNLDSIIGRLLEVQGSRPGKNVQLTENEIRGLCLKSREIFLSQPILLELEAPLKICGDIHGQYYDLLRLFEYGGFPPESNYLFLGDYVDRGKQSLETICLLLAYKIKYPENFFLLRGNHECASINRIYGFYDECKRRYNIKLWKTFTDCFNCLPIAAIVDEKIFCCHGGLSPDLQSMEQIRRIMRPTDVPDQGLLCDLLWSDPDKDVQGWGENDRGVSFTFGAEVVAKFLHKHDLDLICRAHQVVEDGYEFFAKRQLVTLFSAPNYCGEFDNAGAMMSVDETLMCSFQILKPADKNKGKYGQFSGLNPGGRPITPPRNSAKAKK

| Compound | IC50 (PP1α (PP1CA)) [µM] | Tubulin polymerization inhibition (bovine brain tubulin) | Effect on Hela at 25 μM (HeLa cells) | GI50 (HMEC cells) [µM] |
| --- | --- | --- | --- | --- |
| COc1ccc(-c2cc3ccc(OC)cc3c(=O)n2N)cc1 [Compound 61, 2-Amino-7-methoxy-3-(4-methoxyphenyl)isoquinoline-1(2H)-one] | > 50 | — ((−) signifies that the molecule induces little or no tubulin assembly inhibition in vitro: 0+ or − −5% of the DMSO control.) | — | > 50 |
| COc1ccc(-c2c([N+](=O)[O-])c3ccc(OC)cc3c(=O)n2N)cc1 [Compound 62, 2-Amino-7-methoxy-3-(4-methoxyphenyl)-4-nitroisoquinoline-1(2H)-one] | > 50 | — ((−) signifies that the molecule induces little or no tubulin assembly inhibition in vitro: 0+ or − −5% of the DMSO control.) | *** | 1 to 25 |
| COc1ccc(-c2cc3ccc(OC)cc3c(=O)n2C)cc1 [Compound 65, 7-Methoxy-3-(4-methoxyphenyl)-2-methylisoquinoline-1(2H)-one] | ≥ 50 | + ((+) signifies that the molecule induces tubulin assembly inhibition in vitro comprised between 6 and 25% of the DMSO control.) | * | 1 to 25 |
| COc1ccc(-c2c([N+](=O)[O-])c3ccc(OC)cc3c(=O)n2CCO)cc1 [Compound 68, 2-(2-Hydroxyethyl)-7-methoxy-3-(4-methoxyphenyl)-4-nitroisoquinoline-1(2H)-one] | > 50 | — ((−) signifies that the molecule induces little or no tubulin assembly inhibition in vitro: 0+ or − −5% of the DMSO control.) | — | 25 to 50 |
| COc1ccc(COc2nc(-c3ccc(OC)cc3)c(I)c3ccc(OC)cc23)cc1 [Compound 69, 4-Iodo-7-methoxy-1-(4-methoxybenzyloxy)-3-(4-methoxyphenyl)isoquinoline] | 25 to 50 | + ((+) signifies that the molecule induces tubulin assembly inhibition in vitro comprised between 6 and 25% of the DMSO control.) | — | 25 to 50 |
| COc1ccc(-c2nc(N)c3cc(OC)ccc3c2[N+](=O)[O-])cc1 [Compound 71, 1-Amino-7-methoxy-3-(4-methoxyphenyl)-4-nitroisoquinoline] | > 50 | + ((+) signifies that the molecule induces tubulin assembly inhibition in vitro comprised between 6 and 25% of the DMSO control.) | — | 25 to 50 |

The next lines start with results.

| IC50 (PP1α (PP1CA)) [µM] | Compound | Tubulin polymerization inhibition (bovine brain tubulin) | Effect on Hela at 25 μM (HeLa cells) | GI50 (HMEC cells) [µM] |
| --- | --- | --- | --- | --- |
| ≤ 9 | COc1ccc2c([N+](=O)[O-])c(-c3ccc(C#CC(C)(C)C)cc3)[nH]c(=O)c2c1 [Compound 60, 3-(4-(3,3-dimethylbut-1-ynyl)phenyl)-7-methoxy-4-nitroisoquinolin-1(2H)-one] | — ((−) signifies that the molecule induces little or no tubulin assembly inhibition in vitro: 0+ or − −5% of the DMSO control.) | *** | 1 to 25 |
| 10 to 24 | COc1ccc(-c2cc3ccc(OC)cc3c(OC)n2)cc1 [Compound 64, 1,7-Dimethoxy-3-(4-methoxyphenyl)isoquinoline] | — ((−) signifies that the molecule induces little or no tubulin assembly inhibition in vitro: 0+ or − −5% of the DMSO control.) | — | > 50 |
| ≤ 9 | COc1ccc(-c2c([N+](=O)[O-])c3ccc(OC)cc3c(=O)n2C)cc1 [Compound 66, 7-Methoxy-3-(4-methoxyphenyl)-2-methyl-4-nitroisoquinoline-1(2H)-one] | + ((+) signifies that the molecule induces tubulin assembly inhibition in vitro comprised between 6 and 25% of the DMSO control.) | * | 1 to 25 |
| 25 to 50 | COc1ccc(-c2cc3ccc(OC)cc3c(=O)n2CCO)cc1 [Compound 67, 2-(2-Hydroxyethyl)-7-methoxy-3-(4-methoxyphenyl)isoquinoline-1(2H)-one] | — ((−) signifies that the molecule induces little or no tubulin assembly inhibition in vitro: 0+ or − −5% of the DMSO control.) | — | 25 to 50 |
| 10 to 24 | COc1ccc(COc2nc(-c3ccc(OC)cc3)c(C(F)(F)F)c3ccc(OC)cc23)cc1 [Compound 70, 7-Methoxy-1-(4-methoxybenzyloxy)-3-(4-methoxyphenyl)-4-(trifluoromethyl)isoquinoline] | + ((+) signifies that the molecule induces tubulin assembly inhibition in vitro comprised between 6 and 25% of the DMSO control.) | — | 25 to 50 |
| 10 to 24 | COc1ccc2c([N+](=O)[O-])c(-c3ccc(O)cc3)[nH]c(=O)c2c1 [Compound 72, 3-(4-hydroxyphenyl)-7-methoxy-4-nitroisoquinolin-1(2H)-one] | ++ ((++) signifies that the molecule induces tubulin assembly inhibition in vitro comprised between 26 and 50% of the DMSO control.) | **** | 0.1 to 1 |
| 10 to 24 | COc1ccc2c([N+](=O)[O-])c(-c3ccc(OC(=O)OC(C)(C)C)cc3)[nH]c(=O)c2c1 [Compound 73, tert-butyl 4-(7-methoxy-4-nitro-1-oxo-1,2-dihydroisoquinolin-3-yl)phenyl carbonate] | — ((−) signifies that the molecule induces little or no tubulin assembly inhibition in vitro: 0+ or − −5% of the DMSO control.) | *** | 1 to 25 |
